Columns and labels:
HCT116 MTAP null cells = experiment: HCT116 MTAP-Null Cell Line Viability; type: cell-based; settings: final count 4-5 days post treatment (IncuCyte, GFP), normalized to DMSO wells
Description: Preparation: HCT116 WT and MTAP null cells were cultured in DMEM/F12+10% FBS at 37° C. Left the media, dissociation reagent, and PBS in room temperature at least 1 hr prior to start.
Process: Washed cells with 5 mL of PBS, aspirate the PBS. Added 1 mL of dissociation reagent (Trypsin, Gibco #25200114) and left at room temperature for 2-5 mins. When cells were detached, added 5 ml of fresh media. Cells were collected into a 10 mL tube and centrifuged at 1000 rpm for 5 minutes at room temperature. Aspirated media, resuspended in 5 mL fresh media, and counted on Bio-Rad TC20 Cell Counter. Based on the count and the table below, added cells to a clear flat bottom, TC-treated 384-well plate (Corning #3764).
Treated the cells the next day post splitting. Used a 10 mM stock of compound.
Process: Compound treatment was applied to cells using a Tecan D300e digital dispenser with a high concentration 20 micromolar and 3-fold serial dilutions over 9 concentrations in triplicate on a 384-well plate.
4-5 days post treatment, used a Live-Cell Analysis System (IncuCyte®) suitable for reading GFP to do a final count. Raw data were normalized based on the average value of the DMSO wells on each plate.

Human MAT2A = biological target: T1, Human MAT2A (Homo sapiens, UniProt P31153); experiment: Phosphate Sensor Fluorescence Assay (MAT2A enzyme inhibition); type: biochemical; settings: 5.8 nM MAT2A (1-395), 500 uM L-methionine, 500 uM ATP, 1 hour at room temperature, fluorescence at 450 nm
T1 construct: Human MAT2A: Cepter, amino acids 1-395 Clone ID 334; purchased Cepter Clone ID 334, lot 00023-148
T1 sequence (P31153 whole entry, the tested form may be a part): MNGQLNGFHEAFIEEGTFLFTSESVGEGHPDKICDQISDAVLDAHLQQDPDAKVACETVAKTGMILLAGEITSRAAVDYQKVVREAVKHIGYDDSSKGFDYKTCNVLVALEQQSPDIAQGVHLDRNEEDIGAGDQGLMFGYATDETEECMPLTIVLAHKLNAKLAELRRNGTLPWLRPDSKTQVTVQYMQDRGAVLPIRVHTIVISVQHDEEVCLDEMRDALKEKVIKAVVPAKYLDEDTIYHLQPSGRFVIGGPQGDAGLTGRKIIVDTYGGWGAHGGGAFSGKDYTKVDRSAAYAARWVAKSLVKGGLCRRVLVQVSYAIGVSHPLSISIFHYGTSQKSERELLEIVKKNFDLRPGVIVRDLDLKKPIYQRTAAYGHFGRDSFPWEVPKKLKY
Description: MAT2A enzyme is incubated with a test compound in DMSO or DMSO and its substrates (L-methionine and ATP) in a microtiter plate. The enzymatic reaction is stopped by the addition of Working Phosphate Sensor Mixture. The plate is analyzed for fluorescence at 450 nm. The high control (DMSO with enzyme and its substrates) gives high fluorescence which represents no inhibition of enzymatic activity while the low control (DMSO with MAT2A substrates and no enzyme) gives low fluorescence which represents full inhibition of enzymatic activity. […]
For the assay, a mixture of 1 mM L-methionine/1 mM ATP (2× final pre-stopped concentration) in assay buffer: MAT2A (2× final pre-stopped concentration) in Assay Buffer and Working Phosphate Sensor Mixture (1.5 uM Phosphate Sensor/30 mM EDTA in Assay Buffer, which is 3× final concentrations) were prepared. […] The plate was read for fluorescence at 450 nm after exciting at 430 nm on a Tecan Spark microplate reader.
Percent inhibition was calculated in Chemical and Biological Information System (CBIS), (ChemInnovation Software Inc.). […]

Row | IC50 (Human MAT2A) [nM] | Structure (SMILES) | EC50 (HCT116 MTAP null cells) [nM]
1 | 60 | Nc1nc(=O)n(-c2ccccc2Cl)c2nc(C(F)(F)F)ccc12 (atropisomer, axis not shown) [Atropisomer Ib] | 149
2 | 3 | Nc1nc(=O)n(-c2ccccc2Cl)c2nc(C(F)(F)F)ccc12 (single isomer, unassigned) [Atropisomer Ia] | 20
